In PubChem BioAssay (NCI):
“And” between values parts separate entries of the source, which are not always exact repeats. Equal values may be shown once.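 Growth conditions: 96-well plates. Treatment: test compound, 48 hours, 5 concentrations. Analysis: linear interpolation between bracketing concentrations; unreached endpoints set to highest concentration. GI50 is the concentration that inhibits growth by half. TGI: total growth inhibition.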

How the values were obtained:
Test in all cases: DTP human tumour cell line panel, 48 h
M14 melanoma = system: M14 melanoma
A549 NSCLC = system: A549 NSCLC
SK-MEL-2 melanoma = system: SK-MEL-2 melanoma
PC-3 prostate = system: PC-3 prostate
ACHN renal = system: ACHN renal
OVCAR-3 ovarian = system: OVCAR-3 ovarian
786-0 renal = system: 786-0 renal
HCC-2998 colon = system: HCC-2998 colon
BT-549 breast = system: BT-549 breast
COLO 205 colon = system: COLO 205 colon

| Compound | TGI (M14 melanoma) | TGI (A549 NSCLC) | TGI (SK-MEL-2 melanoma) | TGI (PC-3 prostate) | TGI (ACHN renal) | TGI (OVCAR-3 ovarian) | TGI (786-0 renal) | TGI (HCC-2998 colon) | TGI (BT-549 breast) | TGI (COLO 205 colon) | GI50 (M14 melanoma) | GI50 (A549 NSCLC) | GI50 (SK-MEL-2 melanoma) | GI50 (PC-3 prostate) | GI50 (ACHN renal) | GI50 (OVCAR-3 ovarian) | GI50 (786-0 renal) | GI50 (HCC-2998 colon) | GI50 (BT-549 breast) | GI50 (COLO 205 colon) |
| --- | --- | --- | --- | --- | --- | --- | --- | --- | --- | --- | --- | --- | --- | --- | --- | --- | --- | --- | --- | --- |
| O=C(CNc1ccc2c(=S)c3ccccc3[nH]c2c1)Nc1ccccc1-c1ccccc1NC(=O)CNc1ccc2c(=S)c3ccccc3[nH]c2c1 | 41.4 µM | 55.5 µM | 34.4 µM | > 49.8 µM | 28.5 µM | 55 µM | 32.9 µM | 31.5 µM | 56.7 µM | 35.8 µM |  |  |  |  |  |  |  |  |  |  |
| Cc1cc(N(CCCNc2ccnc3cc(Cl)ccc23)Cc2ccc3c(c2)OCO3)nc(N2CCCCC2)n1 | 3.47 µM | 7.37 µM | 3.77 µM | 5.38 µM | 4.84 µM | 3.19 µM | 3.09 µM | 4.79 µM | 5.95 µM | 3.33 µM | 1.77 µM | 2.62 µM | 1.94 µM | 2.1 µM | 2.32 µM | 1.63 µM | 1.57 µM | 2.09 µM | 2.28 µM | 1.66 µM |
| C[C@@H](COCCC(=O)N1CCN(c2ncc(C(F)(F)F)cn2)CC1)Nc1cn[nH]c(=O)c1C(F)(F)F | > 100 µM | > 100 µM | > 100 µM | > 100 µM | > 100 µM | > 100 µM | > 100 µM | > 100 µM | > 100 µM | > 100 µM | 32.9 µM | 45.7 µM | > 100 µM | 45.4 µM | 28.3 µM | 97.5 µM | 59.1 µM | > 100 µM | 0.078 µM | 98.6 µM |
| Cn1cnc2c(F)c(Nc3ccc(Br)cc3F)c(C(=O)NOCCO)cc21 | 0.307 µM | > 100 µM | 0.448 µM and 0.0766 µM | > 100 µM | > 100 µM | > 100 µM | > 100 µM | 4.51 µM | > 100 µM |  | 0.0175 µM and 0.0233 µM | 5.87 µM | 0.0296 µM and 0.0113 µM | > 100 µM | 10.5 µM | > 100 µM | > 100 µM | 0.0162 µM and 0.034 µM | > 60.2 µM | 0.0113 µM and 0.0236 µM |
| CN1C[C@@H]2Cn3c(c(C4=C(c5cn(C)c6ccccc56)C(=O)NC4=O)c4ccccc43)C[C@H]2C1 | 8.24 µM and 7.83 µM | 10.5 µM and 8.75 µM | 8.92 µM and 7.75 µM | 11 µM and 7.08 µM | 12.6 µM and 8.98 µM | 9.42 µM and 10.9 µM | 9.33 µM and 8.9 µM | 8.71 µM and 9.65 µM | 8.4 µM and 8.59 µM | 6.7 µM and 5.72 µM | 4.07 µM and 3.96 µM | 4.4 µM and 3.51 µM | 4.52 µM and 3.91 µM | 3.91 µM and 2.81 µM | 4.16 µM and 3.51 µM | 4.42 µM and 4.64 µM | 4.75 µM and 4.57 µM | 4.59 µM and 4.4 µM | 4.51 µM and 4.36 µM | 3.09 µM and 1.96 µM |
| NC(=O)c1ccccc1NC(=O)c1ccccc1Cl | > 100 µM | > 100 µM | > 100 µM | > 100 µM | > 100 µM | > 100 µM | > 100 µM | > 100 µM | > 100 µM | > 100 µM | > 100 µM | > 100 µM | > 100 µM | > 100 µM | > 100 µM | > 100 µM | > 100 µM | > 100 µM | > 100 µM | > 100 µM |
| Clc1ccc(CNc2nccc(-c3cnn4ncccc34)n2)cc1 | > 17 µM | > 25 µM | 11.5 µM | > 24 µM | > 25 µM | 21.6 µM | 24.4 µM | 18.4 µM | 14.7 µM | 9.76 µM | 7.09 µM | 7.66 µM | 5.25 µM | 6.76 µM | 5.95 µM | 7.32 µM | 9.19 µM | 6.67 µM | 6.4 µM | 4.86 µM |
| NS(=O)(=O)c1ccc(-n2ncc3c(Nc4ccccc4)ncnc32)cc1 | > 100 µM | > 100 µM | > 100 µM | > 100 µM | > 100 µM | > 100 µM | 55.7 µM | 57.7 µM | 92.8 µM | > 100 µM | 32.8 µM | 14.3 µM | 44.3 µM | 35.1 µM | 38.5 µM | 38.2 µM | 18.3 µM | 16.6 µM | 30.3 µM | 21.1 µM |
| COc1ccc(-c2ccc(-c3ccc(C(=N)N)cn3)o2)cc1Cl | 3.19 µM | 6.56 µM | 3.81 µM | 2.68 µM | 3.1 µM | 4.79 µM | 3.4 µM | 3.38 µM | 3.21 µM | 3.18 µM | 1.67 µM | 2.59 µM | 2.12 µM | 1.32 µM | 1.69 µM | 2.24 µM | 1.86 µM | 1.88 µM | 1.75 µM | 1.66 µM |
| Nc1nccc2c1ncn2C1OC(CO)C(O)C1O (centres undefined) | > 100 µM | > 100 µM | > 100 µM | > 100 µM | > 100 µM | > 100 µM | > 100 µM | > 100 µM | > 100 µM | > 100 µM | > 100 µM | > 100 µM | > 100 µM | > 100 µM | > 100 µM | > 100 µM | > 100 µM | > 100 µM | 88.8 µM | > 100 µM |
| COc1ccc(-c2cc(-c3cccc(NS(C)(=O)=O)c3)nc(N)c2C#N)cc1 | 10.7 µM | > 93.4 µM | 14.6 µM | 14.2 µM | 43.9 µM | 0.115 µM | 13.7 µM | 2.44 µM | 12.3 µM | 0.607 µM | 0.0808 µM | 0.109 µM | 0.119 µM | 0.0971 µM | 0.0789 µM | 0.0298 µM | 0.283 µM | 0.185 µM | 0.127 µM | 0.0747 µM |
